Where “and” joins values, the source holds several entries; their conditions need not be identical. Equal entries are not always repeated.
Experiment: Stability testing of steroids combined with povidone iodine (PVP-I, 0.4%), HPLC/UV with LC-MS/MS confirmation
Details: for degradation products observed: two week and/or one month samples in the presence of PVP-I 0.4%
Protocol: PVP-I was prepared in water at the concentration of 100 mg/mL (10%). One milliliter of the solution, suspension, or emulsion was mixed with 40 μL of 10% PVP-I in 1.5 mL amber glass vials, followed by storage under both room temperature and 40° C. for 2 weeks and one month. The resultant samples in the presence of PVP-I were analyzed using HPLC. The four steroid levels were measured against the reference standard samples stored under room temperature in the absence of PVP-I (0.4%).
Weigh 1 g of PVP-I and dissolve in 10 mL of water.
Aliquot 1 mL of ophthalmic solution (USP, 0.1%) into eight amber HPLC vials to give the following samples:
Used the resultant samples as time zero samples for HPLC analysis.
The same as Method 1 except the gradient was changed as follows: […]
The software provided with the HPLC system (LCSolution™ software, version 1.23, installed by SHIMADZU) was used to integrate the peak area.
The measured peak area was converted into concentrations (μg/mL) using the following equation: […]
HPLC Methods: The same as HPLC Method 1, 2, and 3 under Section 2.4.
The Day 0, Two Week, and One Month stability test samples were analyzed with reference standard samples (stored at room temperature in the absence of PVP I) using HPLC Method 1. The sample in the absence of PVP-I with the same concentration of dexamethasone phosphate as those stability samples at the presence of PVP-I was stored in the same stability chamber at 40° C. for one month as control sample. The control sample was analyzed under the same conditions. The concentrations of dexamethasone phosphate in the stability samples were calculated. The HPLC/UV chromatograms of all reference standards and stability testing samples are depicted in FIG. 6 to FIG. 13.
(§1) The Day 0, Two Week, and One Month stability test samples were analyzed with reference standard samples (stored at room temperature in the absence of PVP I) using HPLC Method 2. The sample in the absence of PVP-I with the same concentration of prednisolone acetate as those stability samples at the presence of PVP-I was stored in the same stability chamber at 40° C. for two week and one month as control samples. The control samples were analyzed under the same conditions. The concentrations of prednisolone acetate in the stability samples were calculated. The data were summarized in Table V. The HPLC/UV chromatograms of all reference standards and stability testing samples are depicted in FIG. 18 to FIG. 23.
as §1, with “3.” for “2.”, “loteprednol etabonate” for “prednisolone acetate”, “calculated.” for “calculated. The data were summarized in Table V.”, “28” for “18”, “33.” for “23.”
The Day 0, Two Week, and One Month stability test samples were analyzed with reference standard samples (stored at room temperature in the absence of PVP I) using HPLC Method 3. The sample in the absence of PVP-I with the same concentration of difluprednate as those stability samples at the presence of PVP-I was stored in the same stability chamber at 40° C. for two week and one month as control samples. The control samples were analyzed under the same conditions. The concentrations of difluprednate in the stability samples were calculated.

[1] = 2 weeks, 40° C., with PVP-I 0.4%
[2] = 2 weeks, room temp, with PVP-I 0.4%
[3] = one month, 40° C., with PVP-I 0.4%, mean of two runs
[4] = one month, 40° C., with PVP-I 0.4%, single samples
[5] = one month, room temp, with PVP-I 0.4%
[6] = 2 weeks, 40° C. control, stored without PVP-I
[7] = Day 0, room temp, with PVP-I 0.4%, mean of replicates
[8] = Day 0, room temp, with PVP-I 0.4%, single replicates
[9] = one month, 40° C. control, stored without PVP-I

| Compound | % of Day 0 [1] | % of Day 0 [2] | stability in the presence of PVP-I (result in words) (PVP-I 0.4%, room temperature and 40° C., up to one month) | % of Day 0 [3] | % of Std [3] | % of Day 0 [4] | % of Day 0 [5] | degradation products observed | degradation products observed (listed as dexamethasone phosphate) | % of Day 0 [6] | % of Std [6] | % of Std [1] | % of Std [2] | % of Std [7] | % of Std [8] | % of Day 0 [9] | % of Std [9] | % of Std [4] | % of Std [5] |
| --- | --- | --- | --- | --- | --- | --- | --- | --- | --- | --- | --- | --- | --- | --- | --- | --- | --- | --- | --- |
| C[C@@H]1C[C@H]2[C@@H]3CCC4=CC(=O)C=C[C@]4(C)[C@@]3(F)[C@@H](O)C[C@]2(C)[C@@]1(O)C(=O)COP(=O)([O-])[O-].[Na+].[Na+] [Dexamethasone Sodium Phosphate] | 84.57% | 83.04% | not stable | 84.09% | 87.00% | 84.42% and 83.76% | 84.24% | three additional peaks | Three degradation products (D1, D2, and D3) were observed |  |  |  |  |  |  |  |  |  |  |
| CCCC(=O)O[C@]1(C(=O)COC(C)=O)CC[C@H]2[C@@H]3C[C@H](F)C4=CC(=O)C=C[C@]4(C)[C@@]3(F)[C@@H](O)C[C@@]21C [Difluprednate] | 99.30% | 103.23% |  |  |  | 100.24% | 104.47% |  |  | 89.50% | 89.50% | 95.57% | 99.36% | 96.25% | 95.78% and 96.72% | 97.86% | 97.86% | 96.48% | 100.56% |
| CCOC(=O)O[C@]1(C(=O)OCCl)CC[C@H]2[C@@H]3CCC4=CC(=O)C=C[C@]4(C)[C@H]3[C@@H](O)C[C@@]21C [Loteprednol Etabonate] | 100.07% | 101.43% |  |  |  | 96.02% | 100.72% |  |  | 101.69% | 101.69% | 100.54% | 101.91% | 100.48% | 101.00% and 99.95% | 97.64% | 97.64% | 96.48% | 101.20% |
| CC(=O)OCC(=O)[C@@]1(O)CC[C@H]2[C@@H]3CCC4=CC(=O)C=C[C@]4(C)[C@H]3[C@@H](O)C[C@@]21C [Prednisolone Acetate] | 96.60% | 99.24% |  |  |  | 96.79% | 95.66% |  |  | 100.74% | 100.74% | 101.08% | 103.84% | 104.64% | 104.83% and 104.45% | 100.29% | 100.29% | 101.28% | 100.10% |

— patent US20150038473A1, “STABLE POVIDONE-IODINE COMPOSITIONS WITH STEROIDS OR NON-STEROIDAL ANTI-INFLAMMATORIES” (FORESIGHT BIOTHERAPEUTICS, INC., priority 2011, published 2015)
